Experimental data reported in patent US9856247B2, “4-methyl-dihydropyrimidines for the treatment and prophylaxis of Hepatitis B virus infection” (Hoffmann-La Roche Inc., priority 2012, dated 2018).

Columns and labels:
HBV DNA = assay: Anti-HBV activity in HepDE19 cells (HBV DNA dot-blot); type: cell-based, Hepatitis B virus (HBV); settings: Hepatitis B virus, 120 h; HepDE19 cells, five days after compound treatment, concentration that inhibited HBV DNA by 50%; read-out: HepDe19 EC50
Excerpt: Cells and culture conditions: HepDE19 (Haitao Guo et al, Journal of Virology, 81, November 2007, 12472-12484; Richeng Mao et al, Journal of Virology, 85, January 2011, 1048-1057) cells were derived from HepG2 (ATCC, American Type Culture Collection) cells through transfection with pTet-off plasmid (Clontech) that expresses the Tet-responsive transcriptional activator and pTREHBVDE plasmid in which HBV pgRNA expression is controlled by a CMV early promoter with a tetracycline-responsive element. The transfected cells were selected with G418 (also known as Genticin, purchased from Invitrogen). […] These cells were maintained in Dulbecco's modified Eagle's medium (DMEM)-F12 medium (Invitrogen) supplemented with 10% fetal bovine serum, 100 U/ml penicillin, and 100 μg/ml streptomycin, 0.5 mg/ml of G418 and 1 μg/ml tetracycline.
Anti-HBV activity and cytotoxicity: HepDE19 cells were seeded into 96-well plates (3×10^4 cells/well) with tetracycline-free medium and incubated overnight at 37° C. The test or control compounds were serially half-log diluted with medium and added into the plates (the final concentration of DMSO kept at 0.5% in each well). Five days after compound treatment, cells were washed with PBS and lysed with 50 mM Tris-1 mM EDTA-0.2% CA-630 (pH 8.0) at 37° C. for 20 min. After centrifugation to remove nuclei and other debris, the supernatant was transferred into a new plate and incubated with 2M NaOH/20×SSC (3M NaCl, 0.3M Sodium citrate, pH7.0) at rt for 30 min. Then the samples were transferred to nylon membrane and neutralized with 1M Tris (pH7.4)/2M NaCl. The presence of HBV DNA was detected by dot-blot with DIG-labeled HBV specific DNA probe and quantified by dot density. The compound concentrations that inhibited HBV DNA by 50% (EC50) were determined (See Table 1).

in vitro = settings: human
Experimental: The transfected cells were selected with G418 (also known as Genticin, purchased from Invitrogen). […] These cells were maintained in Dulbecco's modified Eagle's medium (DMEM)-F12 medium (Invitrogen) supplemented with 10% fetal bovine serum, 100 U/ml penicillin, and 100 μg/ml streptomycin, 0.5 mg/ml of G418 and 1 μg/ml tetracycline.
To determine if the anti-HBV effect of compound is due to cytotoxicity, HepDE 19 cells (5×10^3 cells/well) were seeded into 96-well plates and compounds were treated as described above. […] Four hours after incubation at 37° C., the absorbance at wavelengths of 450 nm and 630 nm (OD450 and OD630) was recorded by a plate reader.

Row | Compound | EC50 (HBV DNA) [nM] | CC50 at 5 days (in vitro) [µM]
1 | COC(=O)C1=C(CN2CC(F)(F)C[C@H]2C(=O)O)NC(c2ccc(F)cn2)=N[C@@]1(C)c1ccc(F)cc1 [Example 18, (S)-6-((S)-2-Carboxy-4,4-difluoro-pyrrolidin-1-ylmethyl)-4-(4-fluoro-phenyl)-2-(5-fluoro-pyridin-2-yl)-4-methyl-1,4-dihydro-pyrimidine-5-carboxylic acid methyl ester] | 570 | 25
2 | COC(=O)C1=C(CN2CC(F)(F)C[C@H]2CO)NC(c2nccs2)=N[C@@]1(C)c1ccc(F)cc1 [Example 55, (S)-6-((S)-4,4-difluoro-2-hydroxymethyl-pyrrolidin-1-ylmethyl)-4-(4-fluoro-phenyl)-4-methyl-2-thiazol-2-yl-1,4-dihydro-pyrimidine-5-carboxylic acid methyl ester] | 67 | ≥ 100
3 | COC(=O)C1=C(CN2CC(F)(F)C[C@H]2c2nc(C)no2)NC(c2nccs2)=N[C@@]1(C)c1ccc(F)cc1 [Example 59, (S)-6-[(S)-4,4-difluoro-2-(3-methyl-[1,2,4]oxadiazol-5-yl)-pyrrolidin-1-ylmethyl]-4-(4-fluoro-phenyl)-4-methyl-2-thiazol-2-yl-1,4-dihydro-pyrimidine-5-carboxylic acid methyl ester] | 1240 | 65.3
4 | COC(=O)C1=C(CN2CC(F)(F)C[C@@]2(C)C(=O)O)NC(c2nccs2)=N[C@@]1(C)c1ccc(F)cc1 [Example 20, (S)-6-((S)-2-Carboxy-4,4-difluoro-2-methyl-pyrrolidin-1-ylmethyl)-4-(4-fluoro-phenyl)-4-methyl-2-thiazol-2-yl-1,4-dihydro-pyrimidine-5-carboxylic acid methyl ester] | 2800 | > 100
5 | COC(=O)C1=C(CN2CC(F)(F)C[C@H]2C(=O)O)NC(c2nccn2C)=N[C@@]1(C)c1ccc(F)cc1 [Example 27, (S)-6-((S)-2-carboxy-4,4-difluoro-pyrrolidin-1-ylmethyl)-4-(4-fluoro-phenyl)-4-methyl-2-(1-methyl-1H-imidazol-2-yl)-1,4-dihydro-pyrimidine-5-carboxylic acid methyl ester] | 2720 | 55.8
6 | COC(=O)C1=C(CN2CC(F)(F)C[C@H]2C(=O)O)NC(c2nc(C)cs2)=N[C@@]1(C)c1ccc(F)cc1 [Example 32, (S)-6-((S)-2-carboxy-4,4-difluoro-pyrrolidin-1-ylmethyl)-4-(4-fluoro-phenyl)-4-methyl-2-(4-methyl-thiazol-2-yl)-1,4-dihydro-pyrimidine-5-carboxylic acid methyl ester] | 130 | 75
7 | COC(=O)C1=C(CN2CCOC[C@H]2C(=O)O)NC(c2ccc(F)cn2)=NC1(C)c1ccc(F)cc1 (stereo partly drawn) [Example 10, 4-[6-(4-Fluoro-phenyl)-2-(5-fluoro-pyridin-2-yl)-5-methoxycarbonyl-6-methyl-3,6-dihydro-pyrimidin-4-ylmethyl]-morpholine-(S)-3-carboxylic acid] | 7040 | > 100
8 | COC(=O)C1=C(CN2CC(F)(F)CCC2C(=O)O)NC(c2nccs2)=N[C@@]1(C)c1ccc(F)cc1 (stereo partly drawn) [Example 25, (S)-6-(2-carboxy-5,5-difluoro-piperidin-1-ylmethyl)-4-(4-fluoro-phenyl)-4-methyl-2-thiazol-2-yl-1,4-dihydro-pyrimidine-5-carboxylic acid methyl ester] | 1090 | ≥ 100
9 | COC(=O)C1=C(CN2CC(F)(F)C[C@H]2C(=O)O)NC(c2ncc(C)s2)=N[C@@]1(C)c1ccc(F)cc1 [Example 37, (S)-6-((S)-2-carboxy-4,4-difluoro-pyrrolidin-1-ylmethyl)-4-(4-fluoro-phenyl)-4-methyl-2-(5-methyl-thiazol-2-yl)-1,4-dihydro-pyrimidine-5-carboxylic acid methyl ester] | 470 | 85
10 | COC(=O)C1=C(CN2CC(F)(F)C[C@H]2C(=O)O)NC(c2sccc2F)=N[C@]1(C)c1ccc(F)cc1 [Example 42, (R)-6-((S)-2-carboxy-4,4-difluoro-pyrrolidin-1-ylmethyl)-4-(4-fluoro-phenyl)-2-(3-fluoro-thiophen-2-yl)-4-methyl-1,4-dihydro-pyrimidine-5-carboxylic acid methyl ester] | 6810 | ≥ 100
11 | COC(=O)C1=C(CN2CCOC[C@H]2C(=O)O)NC(c2nccs2)=NC1(C)c1ccc(F)c(F)c1 (some centres unmarked) [Example 16, 4-[6-(3,4-Difluoro-phenyl)-5-methoxycarbonyl-6-methyl-2-thiazol-2-yl-3,6-dihydro-pyrimidin-4-ylmethyl]-morpholine-3-carboxylic acid] | 250 | > 100
12 | COC(=O)C1=C(CN2CCC(F)(F)CC2C(=O)O)NC(c2nccs2)=N[C@@]1(C)c1ccc(F)cc1 (stereo partly drawn) [Example 26, (S)-6-(2-carboxy-4,4-difluoro-piperidin-1-ylmethyl) 4-(4-fluoro-phenyl)-4-methyl-2-thiazol-2-yl-1,4-dihydro-pyrimidine-5-carboxylic acid methyl ester] | 1970 | ≥ 100
13 | C[C@@]1(c2ccc(F)c(F)c2)N=C(c2nccs2)NC(CN2CC(F)(F)C[C@H]2C(=O)O)=C1C#N [Example 23, (S)-1-[(S)-5-Cyano-6-(3,4-difluoro-phenyl)-6-methyl-2-thiazol-2-yl-3,6-dihydro-pyrimidin-4-ylmethyl]-4,4-difluoro-pyrrolidine-2-carboxylic acid] | 7000 | > 100
14 | COC(=O)C1=C(CN2CC(F)(F)C[C@H]2C(C)(C)O)NC(c2nccs2)=N[C@@]1(C)c1ccc(F)cc1 [Example 54, (S)-6-[(S)-4,4-difluoro-2-(1-hydroxy-1-methyl-ethyl)-pyrrolidin-1-ylmethyl]-4-(4-fluoro-phenyl)-4-methyl-2-thiazol-2-yl-1,4-dihydro-pyrimidine-5-carboxylic acid methyl ester] | 700 | 50.4
15 | COC(=O)C1=C(CN2CC(F)(F)C[C@H]2C(=O)OC)NC(c2ccc(F)cn2)=NC1(C)c1ccc(F)cc1 (stereo in doubt) [Example 17, 6-(4,4-Difluoro-2-methoxycarbonyl-pyrrolidin-1-ylmethyl)-4-(4-fluoro-phenyl)-2-(5-fluoro-pyridin-2-yl)-4-methyl-1,4-dihydro-pyrimidine-5-carboxylic acid methyl ester] | 590 | 90
16 | COC(=O)C1=C(CN2C[C@H](F)C[C@H]2C(=O)O)NC(c2nccs2)=N[C@@]1(C)c1ccc(F)cc1 [Example 34, (S)-6-((2S,4R)-2-Carboxy-4-fluoro-pyrrolidin-1-ylmethyl)-4-(4-fluoro-phenyl)-4-methyl-2-thiazol-2-yl-1,4-dihydro-pyrimidine-5-carboxylic acid methyl ester] | 2840 | ≥ 100
17 | COC(=O)C1=C(CN2CC(F)(F)C[C@H]2C(=O)O)NC(c2nc(C)cs2)=N[C@]1(C)c1ccc(F)cc1 [Example 31, (R)-6-((S)-2-carboxy-4,4-difluoro-pyrrolidin-1-ylmethyl)-4-(4-fluoro-phenyl)-4-methyl-2-(4-methyl-thiazol-2-yl)-1,4-dihydro-pyrimidine-5-carboxylic acid methyl ester] | 1670 | ≥ 100
18 | COC(=O)C1=C(COC(C)(C)C(=O)OC)NC(c2nccs2)=NC1(C)c1ccc(F)cc1 (centres unmarked) [Example 1, 4-(4-Fluoro-phenyl)-6-(1-methoxycarbonyl-1-methyl-ethoxymethyl)-4-methyl-2-thiazol-2-yl-1,4-dihydro-pyrimidine-5-carboxylic acid methyl ester] | 26300 | > 100
19 | COC(=O)C1=C(CN2CC(F)(F)C[C@H]2C(=O)O)NC(c2ccon2)=NC1(C)c1ccc(F)cc1 (stereo partly drawn) [Example 35, 6-((S)-2-carboxy-4,4-difluoro-pyrrolidin-1-ylmethyl)-4-(4-fluoro-phenyl)-2-isoxazol-3-yl-4-methyl-1,4-dihydro-pyrimidine-5-carboxylic acid methyl ester] | 15000 | ≥ 100
